In patent US4267192A, “Method for treating inflammation” (priority 1980, dated 1981):
Read-outs that look alike come from different tables or passages of the source.

Legend:
[1] = test system: carrageenan-induced edema in the hind paw of normal and adrenalectomized rats; assay: carrageenan paw edema in normal and adrenalectomized rats; format: in vivo, rat
Procedure: Vehicle alone is administered as a control. Sixty minutes after drug administration edema is induced by an injection of 0.1 ml. of a 1% carrageenan solution is saline into the subplantar tissue of the rat's right hind paw. Two minutes later, paw volume is measured volumetrically with a plethysmograph and again 3 hours later. The mean volume of swelling for the control group is calculated and compared to the test groups. Percent change in paw edema is calculated and analyzed statistically (unpaired, Student's t-test).
Normal rats received the same doses as adrenalectomized rats.

[2] = test system: rat stomach (gastric ulcers, gastric swelling); format: in vivo, rat (male Charles River, Sprague-Dawley); conditions: for Number of Animals With Gastric Swelling / Number of Animals With Gastric Ulcers: 4 hours after dosing
Procedure: The rats are divided into groups 6-10 and dosed by the oral route with test compound, on a mg/kg. body weight basis, or vehicle control, 0.5% carboxymethylcellulose, in a volume of 3 ml. per rat. Four hours after dosing, the rats are decapitated and exsanguinated. Stomachs are removed and examined for gastric swelling and then opened and washed for visual inspection of gastric ulcers. Only one lesion or gastric bleeding is necessary for a positive response. Data is reported quantally.

[3] = test system: polyarthritis induced by Mycobacterium butyricum or tuberculosis in rats; conditions: for Increase in Left Paw Volume (ml.) 0-16 days / Increase in Right Paw Volume (ml.) 0-4 days: mean ± S.E.
Procedure: (§1) Polyarthritis is induced in groups of 6-10 Sprague-Dawley rats weighing between 180-220 g. by a subcutaneous injection into the right paw of dessicated Mycobacterium butyricum or tuberculosis (0.5 mg/0.1 ml.) suspended in light mineral oil. […] Both hind paw volumes (ml.) are measured by mercury plethysmograph on day 0 or at the time of injection of the complete adjuvant. Increases in paw volume (viz. edema) are determined for both paws on days 4 and 16. The change in body weight from day 0 to day 16 is also calculated. Statistical analysis of differences in paw edemas and body weight is performed by using the unpaired. Student's t-test.

[4] = test system: adjuvant arthritis in rats; assay: Adjuvant Arthritis Test, periodic administration (with daily regimen for comparison); conditions: rat; for Increase in Paw Volume 0-16 days (left paw) / Increase in Right Paw Volume (ml.) 0-4 days: mean ± S.E.
Procedure: as §1
Adjuvant arthritis is induced as described in A. above, but drugs are administered only on days 2, 3, 4 or on days 8, 9, 10.

[5] = Adrenalectomized Rats, oral 100 mg/kg
[6] = Adrenalectomized Rats, oral 200 mg/kg
[7] = rat, oral 3.0 mg/kg daily, Table 3 group a
[8] = rat, oral 5.0 mg/kg daily, Table 3 group b
[9] = rat, oral 10.0 mg/kg daily, Table 3 group a
[10] = rat, oral 10.0 mg/kg daily, Table 3 group b
[11] = rat, oral 25.0 mg/kg daily, Table 3 group b
[12] = rat, oral 30.0 mg/kg daily, Table 3 group a
[13] = rat, oral 100.0 mg/kg daily, Table 3 group a
[14] = rat, oral 300.0 mg/kg daily, Table 3 group a
[15] = oral 2 mg/kg, Daily (0-15) except weekends
[16] = oral 6 mg/kg, Daily (0-15) except weekends
[17] = oral 18 mg/kg, Daily (0-15) except weekends

Compound: O=C(O)C=C1c2ccccc2C=Cc2ccccc21 [DCHA]
- % Inhibition [1, 5]: 37%
- Edema (ml) ± S.E. [1, 5]: 0.57 ± .02 mL
- % Inhibition [1, 6]: 41%
- Edema (ml) ± S.E. [1, 6]: 0.81 ± .04 mL
- % Inhibition ([1]; Normal Rats, oral 100 mg/kg): 38%
- Mean Edema (ml) ± S.E. ([1]; Normal Rats, oral 100 mg/kg): 0.58 ± .04 mL
- % Inhibition ([1]; Normal Rats, oral 200 mg/kg): 44%
- Mean Edema (ml) ± S.E. ([1]; Normal Rats, oral 200 mg/kg): 0.53 ± .05 mL
- action by stimulating naturally occurring steroids ([1]; in words): independent of the adrenal glands
- anti-inflammatory activity in adrenalectomized rats compared with normal control animals ([1]; oral 100 and 200 mg/kg): not different from that observed in normal control animals
- gastric irritation ([2]; in words): neither causing gastric irritation nor affecting gastric secretions
- effect on gastric secretion ([2]; in words, high doses): no effect on gastric secretion
- gastric ulceration ([2]; rat, doses up to 480 mg/kg, in words): no gastric ulceration
- Number of Animals With Gastric Swelling ([2]; rat, oral 60 mg/kg): 0/6
- Number of Animals With Gastric Ulcers ([2]; rat, oral 60 mg/kg): 0/6
- Number of Animals With Gastric Swelling ([2]; rat, oral 120 mg/kg): 0/6
- Number of Animals With Gastric Ulcers ([2]; rat, oral 120 mg/kg): 0/6
- Number of Animals With Gastric Swelling ([2]; rat, oral 240 mg/kg): 0/6
- Number of Animals With Gastric Ulcers ([2]; rat, oral 240 mg/kg): 0/6
- Number of Animals With Gastric Swelling ([2]; rat, oral 480 mg/kg): 0/6
- Number of Animals With Gastric Ulcers ([2]; rat, oral 480 mg/kg): 0/6
- potency relative to aspirin ([3]; chronic inflammatory disease mediated mainly through immunological mechanisms, in words): several times more potent than aspirin
- toxicity at high doses ([3]; in words): no apparent toxicity at high doses
- % Change of Left Paw Edema at Day 16 [3, 7]: -45%
- % Change of Right Paw Edema at Day 4 [3, 7]: -15%
- Change In Body Weight (mean ± S.E.) 0-16 days [3, 7]: 22.5 ± 9.6
- Increase in Left Paw Volume (ml.) 0-16 days [3, 7]: 0.43 ± .09 mL
- Increase in Right Paw Volume (ml.) 0-4 days [3, 7]: 1.33 ± .11 mL
- % Change of Left Paw Edema at Day 16 [3, 8]: -5.4%
- % Change of Right Paw Edema at Day 4 [3, 8]: -30%
- Change In Body Weight (mean ± S.E.) 0-16 days [3, 8]: 19.5 ± 5.8
- Increase in Left Paw Volume (ml.) 0-16 days [3, 8]: 0.70 ± .05 mL
- Increase in Right Paw Volume (ml.) 0-4 days [3, 8]: 1.30 ± .08 mL
- % Change of Left Paw Edema at Day 16 [3, 9]: -47%
- % Change of Right Paw Edema at Day 4 [3, 9]: -55%
- Change In Body Weight (mean ± S.E.) 0-16 days [3, 9]: 25.6 ± 8.0
- Increase in Left Paw Volume (ml.) 0-16 days [3, 9]: 0.41 ± .04 mL
- Increase in Right Paw Volume (ml.) 0-4 days [3, 9]: 0.70 ± .06 mL
- % Change of Left Paw Edema at Day 16 [3, 10]: -55%
- % Change of Right Paw Edema at Day 4 [3, 10]: -39%
- Change In Body Weight (mean ± S.E.) 0-16 days [3, 10]: 33.3 ± 5.5
- Increase in Left Paw Volume (ml.) 0-16 days [3, 10]: 0.33 ± .06 mL
- Increase in Right Paw Volume (ml.) 0-4 days [3, 10]: 1.14 ± .04 mL
- % Change of Left Paw Edema at Day 16 [3, 11]: -47%
- % Change of Right Paw Edema at Day 4 [3, 11]: -47%
- Change In Body Weight (mean ± S.E.) 0-16 days [3, 11]: 30.3 ± 5.7
- Increase in Left Paw Volume (ml.) 0-16 days [3, 11]: 0.39 ± .04 mL
- Increase in Right Paw Volume (ml.) 0-4 days [3, 11]: 1.00 ± .05 mL
- % Change of Left Paw Edema at Day 16 [3, 12]: -62%
- % Change of Right Paw Edema at Day 4 [3, 12]: -58%
- Change In Body Weight (mean ± S.E.) 0-16 days [3, 12]: 45.8 ± 5.6
- Increase in Left Paw Volume (ml.) 0-16 days [3, 12]: 0.30 ± .05 mL
- Increase in Right Paw Volume (ml.) 0-4 days [3, 12]: 0.66 ± .06 mL
- weight gain ([3]; rat, oral 100 mg/kg): 51 g
- % Change of Left Paw Edema at Day 16 [3, 13]: -60%
- % Change of Right Paw Edema at Day 4 [3, 13]: -53%
- Change In Body Weight (mean ± S.E.) 0-16 days [3, 13]: 50.6 ± 5.4
- Increase in Left Paw Volume (ml.) 0-16 days [3, 13]: 0.31 ± .05 mL
- Increase in Right Paw Volume (ml.) 0-4 days [3, 13]: 0.74 ± .08 mL
- weight gain ([3]; rat, oral 300 mg/kg): 58 g
- % Change of Right Paw Edema at Day 4 [3, 14]: -58%
- Change In Body Weight (mean ± S.E.) 0-16 days [3, 14]: 58.2 ± 8.3
- Increase in Left Paw Volume (ml.) 0-16 days [3, 14]: 0.14 ± .06 mL
- Increase in Right Paw Volume (ml.) 0-4 days [3, 14]: 0.66 ± .05 mL
- toxic signs or loss of body weight ([3]; rat, oral 100 and 300 mg/kg): did not show any toxic signs or loss of body weight
- anti-inflammatory activity in the adjuvant arthritis test ([3]; rat, oral, daily): significant anti-inflammatory activity
- estimated ED50 (adjuvant arthritis test) ([3]; rat, oral, daily): ~15 mg/kg
- active doses, right paw edema at 4 days (acute, non-specific inflammation) ([3]; rat, orally): 10 to 300 mg/kg
- effective doses, left paw edema (immunologically induced inflammation) ([3]; rat, orally): 3-300 mg/kg
- activity in short term dosing regimen ([4]; days 2, 3, 4): less so
- activity in short term dosing regimen ([4]; days 8, 9, 10): active
- % Change of Left Paw Edema at Day 16 [4, 15]: +12%
- % Change of Right Paw Edema at Day 4 [4, 15]: +17%
- Change In Body Weight (mean ± S.E.) 0-16 days [4, 15]: 8.9 ± 7.8
- Increase in Paw Volume 0-16 days (left paw) [4, 15]: 0.82 ± 0.18
- Increase in Right Paw Volume (ml.) 0-4 days [4, 15]: 1.60 ± 0.08 mL
- % Change of Left Paw Edema at Day 16 [4, 16]: -16%
- % Change of Right Paw Edema at Day 4 [4, 16]: -24%
- Change In Body Weight (mean ± S.E.) 0-16 days [4, 16]: 6.0 ± 4.8
- Increase in Paw Volume 0-16 days (left paw) [4, 16]: 0.62 ± 0.04
- Increase in Right Paw Volume (ml.) 0-4 days [4, 16]: 1.03 ± 0.06 mL
- % Change of Left Paw Edema at Day 16 ([4]; oral 10 mg/kg, Days 2,3,4): -22%
- % Change of Right Paw Edema at Day 4 ([4]; oral 10 mg/kg, Days 2,3,4): -33%
- Change In Body Weight (mean ± S.E.) 0-16 days ([4]; oral 10 mg/kg, Days 2,3,4): 14.7 ± 11.7
- Increase in Paw Volume 0-16 days (left paw) ([4]; oral 10 mg/kg, Days 2,3,4): 0.58 ± 0.13
- Increase in Right Paw Volume (ml.) 0-4 days ([4]; oral 10 mg/kg, Days 2,3,4): 0.92 ± 0.07 mL
- % Change of Left Paw Edema at Day 16 ([4]; oral 10 mg/kg, Days 8,9,10): -58%
- Change In Body Weight (mean ± S.E.) 0-16 days ([4]; oral 10 mg/kg, Days 8,9,10): 10.5 ± 7.9
- Increase in Paw Volume 0-16 days (left paw) ([4]; oral 10 mg/kg, Days 8,9,10): 0.31 ± 0.06
- % Change of Left Paw Edema at Day 16 [4, 17]: -65%
- % Change of Right Paw Edema at Day 4 [4, 17]: -41%
- Change In Body Weight (mean ± S.E.) 0-16 days [4, 17]: 18.3 ± 6.7
- Increase in Paw Volume 0-16 days (left paw) [4, 17]: 0.26 ± 0.05
- Increase in Right Paw Volume (ml.) 0-4 days [4, 17]: 0.81 ± 0.07 mL
